For data set [1], the system named is mice. The data set is described as follows: Ear swelling test of mice, compared to Hostacortin H. It is filed as in vivo. The procedure:
Ear erythema was determined by visual inspection and detection of presence (+) or absence (−) signs.
The thickness of the control and experimental ear in all animals was measured with a micrometer. Performance measurements were summed (Σ) separately the right and left ears in groups. The percentage of ear swelling and activity series is calculated using the following formulas: […]

In data set [2] the test system is subclinical mastitis. The conditions noted are these: known methods of treating mastitis of cows; cited from earlier work.
Data set [3] can be described thus: Solubility of hydro-colloid and chitosan. Type of data set: physicochemical. As for the experimental part: Test solution: An adequate sample of Chitosan HCl, Chitosan-HAc, Chitosan, Chitosan-Valeric acid-Hydro Colloid and valeric acid, respectively was dissolved in the solvent above. This mixture was shacked and afterwards sonified in an ultrasonic bath for 5 min.
Sample: Chitosan suspended in water
Result: An acceptable solution of Chitosan in waterish or organic solvents like Methanol etc. is not possible. A suitable solubilization of Chitosan is only possible in stronger acids like HCl or HAc under production of Chitosan HCl or Chitosan HAc.

Where [4] appears, read: Dose 0.1 ml, right ear (allergen provocation site).

Data on three compounds can be found in patent US11173193B2, “Immunobiological products” (priority 2016, dated 2021).

As for `CC(=O)OCC(=O)[C@@]1(O)CC[C@H]2[C@@H]3CCC4=CC(=O)C=C[C@]4(C)[C@H]3[C@@H](O)C[C@@]21C` [prednisolone-21-acetyl, prednisolone-21-acetate], in data set [1] (Dose 0.1 ml), the “Antiallergic activity in Ear swelling test after 2 hours post challenge” value was 14.2%, the “Antiallergic activity in Ear swelling test after 24 hours post challenge” value worked out at 17.5% and the “Antiallergic activity in Ear swelling test after 48 hours post challenge” value was determined as 10.7%. In addition, in data set [1] (Dose 0.1 ml, left ear), the “Σ Ear thickness after 2 hours post challenge, Left” value is given as 335 μm; the “Σ Ear thickness after 24 hours post challenge, Left” value was determined as 330 μm; the “Σ Ear thickness after 48 hours post challenge, Left” value is listed as 326 μm. Besides, in data set [1] (setting [4]), the “Σ Ear thickness after 2 hours post challenge, Right” value was found to be 345 μm; the “Σ Ear thickness after 24 hours post challenge, Right” value was 360 μm; the “Σ Ear thickness after 48 hours post challenge, Right” value is 355 μm. In data set [1] (all stages of the experiment), the “inflammatory response in challenged mice” value is recorded as “positive dynamics of reducing inflammatory response”.

As for `CCN(CC)CCOC(=O)c1ccc(N)cc1` [procaine], in data set [2], the recovery time was 3 to 5 days.

As to chitosan, in data set [3], the Solubility in water entry is listed as “water insoluble” and the “solution in waterish or organic solvents like Methanol” value is “not possible”.
